Source: publication PMC9571608, “Detection of Bitterness in Vitamins Is Mediated by the Activation of Bitter Taste Receptors” (Nutrients, 2022)
Several values for one entry are separate records, joined by “and”; a condition that tells them apart may be missing. Equal values may be shown once. Where a name gives a salt, the structure may show the parent alone. Read-outs that look alike come from different tables or passages of the source.

How the values were obtained:
TAS2R7 [1] = target: T1, TAS2R7 (Homo sapiens, UniProt Q9NYW3); settings: cited from earlier work
T1 sequence (Q9NYW3 1-318): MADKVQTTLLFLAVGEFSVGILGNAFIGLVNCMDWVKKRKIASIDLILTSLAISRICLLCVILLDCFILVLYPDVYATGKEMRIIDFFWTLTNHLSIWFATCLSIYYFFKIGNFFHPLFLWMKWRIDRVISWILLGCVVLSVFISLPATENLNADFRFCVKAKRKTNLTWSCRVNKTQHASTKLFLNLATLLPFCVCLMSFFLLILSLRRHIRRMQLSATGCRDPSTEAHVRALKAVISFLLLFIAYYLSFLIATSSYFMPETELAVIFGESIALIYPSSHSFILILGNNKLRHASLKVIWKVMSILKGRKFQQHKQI

TAS2R39 [2] = target: T2, TAS2R39 (Homo sapiens, UniProt P59534); settings: cited from earlier work
[3] = test system: human bitter taste detection (sensory panel); experiment: Human bitter taste detection threshold, three-alternative forced choice (3-AFC), BET method; assay type: in vivo; settings: 32 panelists, group BET
Excerpt: Based on bibliographic studies, preliminary works performed in the laboratory, and the results of taste receptor functional assays, the following vitamins were included in this study: vitamin B1 (thiamine hydrochloride), vitamin B2 (riboflavin phosphate), vitamin B3 (niacinamide), and vitamin B6 (pyridoxine hydrochloride). These vitamins are present in high quantities in nutritional supplements, safe for humans (except at very high concentrations), and can induce a strong bitter taste. These concentrations were determined according to the toxicity threshold of each compound tested and the maximum daily reference intake. These compounds were prepared in commercial mineral water (Evian®, Evian, France).
The threshold values for bitter taste detection were determined by 32 panelists (18–65 years old, 14 males and 18 females, without sensory perception disorders, food allergies, drug treatments, or heart, lung, or cardiac pathologies) who were recruited from Dijon (France) and the surrounding areas. An ethical committee approved this study (Personal Protection Committee of Rennes—Ouest V, protocol code 2018A01342-53), and all panelists signed an informed consent form. A sensory test called three-alternative forced choice (3-AFC) was used in accordance with the protocol detailed in NF ISO 13301. Before performing the measurement sessions, four training sessions were provided to familiarize the panelists with the bitter taste, test procedure, and signal acquisition software. In this discriminative test, six series consisting of three samples, which were each encoded using randomly generated three-digit numbers, were simultaneously delivered to the panelists. The six 3-AFC presentations contained two blank samples (commercial mineral water, manufacturer: Evian, France) and ascending concentrations of vitamin solution. Before the test, subjects were advised that each presentation consisted of two samples that contained only water and one sample that contained a taste. For each 3-AFC presentation, subjects were asked to take the samples sequentially from left to right. Then, they placed the entirety of each sample solution in their mouths and carefully gargled to ensure that the solution was dispersed throughout the mouth. A sip-and-spit procedure was used; subjects rinsed their mouths with commercial mineral water between each series of tests. Subjects were asked to indicate which of the samples contained the stimulus. If a subject perceived no difference between the three samples, he or she was asked to choose one (forced choice). The sensory tests were conducted in a room devoted to sensory evaluation. For the case of colored samples, black-colored glasses were used, and tastings were performed under red light. […] The aim of this sensory analysis was to determine the bitter taste detection threshold for these vitamins and not an olfactory detection threshold. Therefore, the measurements were conducted using pinched nose clips. The subjects waited one minute between each series and had to thoroughly rinse their mouths. Four repetitions were performed per subject for each vitamin to obtain statistically interpretable results, which represented a total of 288 samples. During the sensory analysis session, a bitterness detection threshold of only two vitamins was used (36 samples) to avoid the ingestion of a high vitamin quantity, which is potentially harmful. The answers from the panelists were collected using software dedicated to sensory analysis (FIZZ acquisition V.2.51 software).
The best estimate threshold (BET) method was used to determine the bitter detection threshold for four vitamins. The individual best-estimated detection threshold (BET) was proposed in ASTM E679-04. ASTM E679-04 is a standard practice for the determination of odor and taste thresholds via a forced-choice ascending concentration series method of limits. […]

TAS2R7 [4] = target: T1, TAS2R7; experiment: Calcium mobilization assay, cells transiently expressing TAS2R7; assay type: cell-based; set-up: expressed in transfected cells; host or cells: HEK293T cells stably expressing Gα16gust44; as to TAS2R Receptor 7 response: key: +: positive responses (lines with background color)
Experimental: (§1) A functional expression study was carried out as described previously. TAS2R expression vectors (pcDNA5FRT-SST3-TAS2R-HSV and pEAK-10-SST3-TAS2RHSV) were kindly provided by Wolfgang Meyerhof (German Institute of Human Nutrition Postdam-Rehbruecke, Nuthetal, Germany). For all constructs, the N-terminus contained the first 45 amino acids of rat somatostatin 3 (SST3) to improve membrane targeting. A sequence coding for a herpes simplex virus glycoprotein D epitope (HSV-tag) was added at the C-terminus to allow immunocytochemical detection of the receptor [13, 14, 23, 24]. HEK293T cells stably expressing the chimeric G protein α subunit Gα16gust44 [25, 26] were seeded into poly-D-lysine-coated 96-well black plates (0.35 × 10^5 cells/well) in high-glucose DMEM supplemented with 2 mM GlutaMAX, 10% dialysed fetal bovine serum penicillin/streptomycin, and G418 (400 µg/mL), and then placed under a humidified and controlled atmosphere (37 °C and 6.3% CO2) overnight. After 24–26 h of incubation, cells were transiently transfected with TAS2R expression plasmids (120 ng/well) using Lipofectamine 2000 reagent (0.4 µL/well) (Thermo Fisher Scientific, Illkirch-Graffenstaden, France).
(§2) Approximately 24–26 h after transfection, cells were loaded for 1 h at 37 °C with Fluo4-AM (2 µM, Molecular Probes), which had been previously mixed with pluronic acid F-127 (0.01%) in C1 buffer (130 mM NaCl, 5 mM KCl, 10 mM HEPES, 2 mM CaCl2, 10 mM pyruvic acid, pH 7.4, 300 mOsm) containing 2.5 mM probenecid (Life Technologies). Approximately one hour after loading, the plate was rinsed twice with 100 µL of C1 buffer. The calcium signal was recorded for 90 s after injection of a range of compounds using a Flexstation 3 fluorometric imaging plate reader (Molecular Devices) at a wavelength of 510 nm after excitation at 488 nm. All substance concentrations were measured in triplicate in at least three independent experiments. As cell transfection and substances can interfere with cellular viability and calcium assays, all compounds were tested on mock-transfected cells (cells transfected with empty vectors) on the same plates for all substance concentrations used.
To obtain a dose–response curve, the ratio between the maximum variation in fluorescence after ligand addition and the initial fluorescence before addition (ΔF/F0) was calculated for each well. The fluorescence signals collected for each replicate were averaged for the same substance concentration, and the fluorescence changes in the corresponding mock-transfected cells were subtracted. […] The dose–response data were fitted, and EC50 values were calculated using a four-parameter logistic equation using SigmaPlot software (Systat Software, San Jose, CA, USA). […]

25 human TAS2Rs = experiment: Taste receptor functional assay, panel of 25 human TAS2Rs; assay type: cell-based; settings: lowest concentration that could elicit TAS2R activation
Experimental: A functional expression study was carried out as described previously. TAS2R expression vectors (pcDNA5FRT-SST3-TAS2R-HSV and pEAK-10-SST3-TAS2RHSV) were kindly provided by Wolfgang Meyerhof (German Institute of Human Nutrition Postdam-Rehbruecke, Nuthetal, Germany). For all constructs, the N-terminus contained the first 45 amino acids of rat somatostatin 3 (SST3) to improve membrane targeting. A sequence coding for a herpes simplex virus glycoprotein D epitope (HSV-tag) was added at the C-terminus to allow immunocytochemical detection of the receptor [13, 14, 23, 24]. […]
as §2, with “Approximately one hour after loading, the plate was rinsed twice with 100 µL of C1 buffer.” left out, “As cell transfection and substances can interfere with cellular viability and calcium assays, all compounds were tested on mock-transfected cells (cells transfected with empty vectors) on the same plates for all substance concentrations used.” left out

TAS2R1 [5] = target: T3, TAS2R1 (Homo sapiens, UniProt Q9NYW7); settings: cited from earlier work
TAS2R39 [6] = target: T2, TAS2R39; settings: vitamin B1 as thiamine hydrochloride, up to M.A.C 1 mM
Experimental: as §1, with “After 24–26 h of incubation, cells were transiently transfected with TAS2R expression plasmids (120 ng/well) using Lipofectamine 2000 reagent (0.4 µL/well) (Thermo Fisher Scientific, Illkirch-Graffenstaden, France).” left out
as §2, with “Approximately one hour after loading, the plate was rinsed twice with 100 µL of C1 buffer.” left out, “As cell transfection and substances can interfere with cellular viability and calcium assays, all compounds were tested on mock-transfected cells (cells transfected with empty vectors) on the same plates for all substance concentrations used.” left out
(§3) To obtain a dose–response curve, the ratio between the maximum variation in fluorescence after ligand addition and the initial fluorescence before addition (ΔF/F0) was calculated for each well. The fluorescence signals collected for each replicate were averaged for the same substance concentration, and the fluorescence changes in the corresponding mock-transfected cells were subtracted. […]

TAS2R1 [7] = target: T3, TAS2R1
Experimental: as §1, with “After 24–26 h of incubation, cells were transiently transfected with TAS2R expression plasmids (120 ng/well) using Lipofectamine 2000 reagent (0.4 µL/well) (Thermo Fisher Scientific, Illkirch-Graffenstaden, France).” left out
as §2, with “Approximately one hour after loading, the plate was rinsed twice with 100 µL of C1 buffer.” left out, “As cell transfection and substances can interfere with cellular viability and calcium assays, all compounds were tested on mock-transfected cells (cells transfected with empty vectors) on the same plates for all substance concentrations used.” left out
as §3

TAS2R14 = target: T4, TAS2R14 (Homo sapiens, UniProt Q9NYV8); experiment: Calcium mobilization assay, cells transiently expressing TAS2R14; assay type: cell-based; as to TAS2R Receptor 14 response: key: +: positive responses (lines with background color)
T4 construct: expressed in transfected cells; host or cells: HEK293T cells stably expressing Gα16gust44
T4 sequence (Q9NYV8 1-317): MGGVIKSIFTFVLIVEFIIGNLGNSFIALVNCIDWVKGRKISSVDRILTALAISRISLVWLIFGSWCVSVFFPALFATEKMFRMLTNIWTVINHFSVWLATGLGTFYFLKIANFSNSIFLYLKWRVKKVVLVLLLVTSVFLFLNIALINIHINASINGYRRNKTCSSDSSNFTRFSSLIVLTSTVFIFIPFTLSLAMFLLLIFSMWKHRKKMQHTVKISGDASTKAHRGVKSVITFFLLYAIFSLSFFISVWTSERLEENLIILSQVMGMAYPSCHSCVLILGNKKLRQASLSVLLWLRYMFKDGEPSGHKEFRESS
Experimental: as §1, with “After 24–26 h of incubation, cells were transiently transfected with TAS2R expression plasmids (120 ng/well) using Lipofectamine 2000 reagent (0.4 µL/well) (Thermo Fisher Scientific, Illkirch-Graffenstaden, France).” left out
as §2, with “Approximately one hour after loading, the plate was rinsed twice with 100 µL of C1 buffer.” left out, “As cell transfection and substances can interfere with cellular viability and calcium assays, all compounds were tested on mock-transfected cells (cells transfected with empty vectors) on the same plates for all substance concentrations used.” left out
as §3

[8] = HEK293T-Gα16gust44 cells, calcium signal, up to M.A.C

T3 sequence (Q9NYW7 whole entry): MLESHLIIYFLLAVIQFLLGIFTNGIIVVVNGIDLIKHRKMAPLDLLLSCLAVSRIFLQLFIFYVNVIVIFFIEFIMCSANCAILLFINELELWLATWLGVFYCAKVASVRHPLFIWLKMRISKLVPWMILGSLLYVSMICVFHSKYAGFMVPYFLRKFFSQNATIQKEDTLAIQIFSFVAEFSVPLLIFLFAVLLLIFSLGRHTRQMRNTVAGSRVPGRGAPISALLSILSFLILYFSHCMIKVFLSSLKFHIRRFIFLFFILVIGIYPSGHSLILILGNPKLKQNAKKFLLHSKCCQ
T2 sequence (P59534 whole entry): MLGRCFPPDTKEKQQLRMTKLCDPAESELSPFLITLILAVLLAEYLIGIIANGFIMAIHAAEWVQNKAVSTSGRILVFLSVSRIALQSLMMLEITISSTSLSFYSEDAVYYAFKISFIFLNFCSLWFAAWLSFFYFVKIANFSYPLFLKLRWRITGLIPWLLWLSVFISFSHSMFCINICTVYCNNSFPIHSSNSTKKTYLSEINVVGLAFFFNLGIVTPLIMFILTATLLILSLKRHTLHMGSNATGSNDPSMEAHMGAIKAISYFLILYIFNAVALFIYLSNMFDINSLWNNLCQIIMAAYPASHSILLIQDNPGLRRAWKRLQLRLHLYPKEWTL

SMILES	TAS2R7 activation (TAS2R7 [1])	TAS2R39 activation (TAS2R39 [2])	Human Bitter Taste Detection Threshold ([3]; Figure 3, aqueous solution)	Human Bitter Taste Detection Threshold ([3]; aqueous solution (mineral water), nose clips, listed as B1)	Human Bitter Taste Detection Threshold ([3]; aqueous solution (mineral water), nose clips, listed as vitamin B1)	TAS2R7 activation (TAS2R7 [4]; vitamin B1 as thiamine hydrochloride, up to M.A.C 1 mM)	Cellular Bitter Taste Detection Threshold (25 human TAS2Rs)	TAS2R1 activation (TAS2R1 [5])	TAS2R39 activation (TAS2R39 [6])	TAS2R1 activation (TAS2R1 [7]; 0.1 mM)	TAS2R Receptor 1 response (TAS2R1 [7]; [8])	Human Bitter Taste Detection Threshold ([3]; aqueous solution (mineral water), nose clips)	TAS2R14 response (TAS2R14; 100 mM)	TAS2R Receptor 14 response (TAS2R14; [8])	EC50 (TAS2R14; TAS2R14-expressing HEK293T cells, Fluo-4 calcium response, read-out: EC50 (half-maximal TAS2R14 activation))	Human Bitter Taste Detection Threshold ([3]; aqueous solution (mineral water), nose clips, listed as B6)	Human Bitter Taste Detection Threshold ([3]; aqueous solution (mineral water), nose clips, listed as vitamin B6)	TAS2R7 response (TAS2R7 [4]; 100 mM)	TAS2R Receptor 7 response (TAS2R7 [4]; [8])	EC50 (TAS2R7 [4]; TAS2R7-expressing HEK293T cells, Fluo-4 calcium response, read-out: EC50 (half-maximal TAS2R7 activation))
Cc1ncc(C[n+]2csc(CCO)c2C)c(N)n1 [Vitamin B1, thiamine hydrochloride]	activation	activation	1.1 mM	1.10 mM	1.1 mM	unable to demonstrate the activation	0.1 mM and 0.10 mM	activation	unable to demonstrate the activation	activation	+	–	–	–	–	–	–	–	–	–
NC(=O)c1cccnc1 [Vitamin B3, niacinamide]	–	–	5.5 mM	–	–	–	–	–	–	–	–	5.5 mM and 5.50 mM	–	–	–	–	–	–	–	–
Cc1ncc(CO)c(CO)c1O [Vitamin B6, pyridoxine hydrochloride]	–	–	5.2 mM	–	–	–	1 mM and 1.00 mM	–	–	–	–	–	robust response	+	10.5 ± 1.47 mM	5.20 mM	5.2 mM	robust response	+	25.5 ± 11.8 mM
